Like-named read-outs stand apart in the source and are kept apart here.
Tests used:
[1] = Pharmacokinetics in Sprague-Dawley rats; format: in vivo
[2] = tested on: Metrazol seizure threshold; assay: Infusion of Metrazol (i.v. Met) seizure threshold test; format: in vivo, mice
Experimental: The i.v. Met test provides a measure of a test substance's ability to raise or lower seizure threshold. Two doses of the test compound are usually employed in this test, the MES ED50 and the TD50 determined following i.p. quantification testing in mice. SKA-19 was accordingly tested at 5 and 30 mg/kg. Randomly selected mice (n=30) were injected i.p. 2 minutes apart with either the vehicle or the two test drug doses. At the previously determined TPE, 0.5% heparinized Metrazol solution was infused at a constant rate of 0.34 ml/min into a lateral tail vein. The time in seconds from the start of the infusion to the appearance of the “first twitch” and the onset of sustained clonus is recorded. The times to each endpoint are converted to mg/kg of Metrazol for each mouse as follows: mg/kg Met=Infusion time (T)×Rate of infusion (ml/min)×mg Met/ml×1000 g/60 sec×Weight (W) of animal in g=T×0.34×5×1000=28.33×T=mg/kg of Metrazol 60×W W. The mean and S.E. for each of the 3 groups and the significance of the difference between the test groups and the control are calculated.

Nc1nc2ccc(SC(F)(F)F)cc2s1 [SKA-19, 6-((trifluoromethyl)thio)benzo[d]thiazol-2-amine]
oral availability ([1]; 10 mg/kg, both vehicles (solution and methylcellulose suspension)): roughly 30% | penetration into tissues (brain, heart, spleen, liver) ([1]; 2 h after i.p. 10 mg/kg): very effective at penetrating into tissues | peak plasma concentration ([1]; gavage 10 mg/kg, suspension in methylcellulose): 1.6 ± 0.6 µM | Kp at 2 h ([1]; male, Sprague-Dawley, rat, brain, ip, 10 mg/kg i.p., 2 h, read-out: brain to plasma concentration ratio): ~3 | concentration at 2 h ([1]; male, Sprague-Dawley, rat, plasma, intraperitoneal, 10 mg/kg i.p., 2 h, read-out: plasma concentration): 4.6 ± 1.3 µM | concentration at 2 h ([1]; male, Sprague-Dawley, rat, plasma, intraperitoneal, 30 mg/kg i.p., 2 hours, read-out: total plasma concentration): 12 ± 2.21 µM | concentration at 4 h ([1]; male, Sprague-Dawley, rat, plasma, intraperitoneal, 30 mg/kg i.p., 4 hours, read-out: total plasma concentration): 13.1 ± 2.67 µM | half-life ([1]; male, Sprague-Dawley, rat, plasma, iv, 10 mg/kg, rats, i.v. 10 mg/kg in cremophor EL/PBS, read-out: elimination half-life t1/2 (converted)): 2.2 h | concentration at 8 h ([1]; male, Sprague-Dawley, rat, plasma, oral solution 10 mg/kg, at 8 h): 0.4 µM | oral availability ([1]; methylcellulose suspension as used by the ASP): about 50% | plasma concentration ([1]; oral solution 10 mg/kg, for 5 h): around 1 μM | sedation ([1]; rats, 30 mg/kg i.p., recovered without weight loss at 24 h): prolonged sedation | elimination half-life t1/2 ([1]; rats, i.v. 10 mg/kg in cremophor EL/PBS): 2.16 ± 0.023 h | time or metrazole dose to the first twitch or clonus ([2]; 5 mg/kg i.p.): did not change | proconvulsant action ([2]; 5 and 30 mg/kg i.p.): not proconvulsant | Metrazole dose to first clonus ([2]; SKA-19 30 mg/kg i.p.): 37.2 ± 1.25 mg/kg | Metrazole dose to first twitch ([2]; SKA-19 30 mg/kg i.p.): 31.6 ± 1.0 mg/kg

— patent US9675591B2, “Methods for treating seizure disorders and pain” (THE REGENTS OF THE UNIVERSITY OF CALIFORNIA, priority 2013, dated 2017)
